Measurements taken from paper PMC12716216, “Characterization of Ligand Binding in Human Serum Albumin from Atomistic Energy Transfer Simulations” (Small Methods, 2025).
Values joined by “and” are separate entries in the source; they are usually repeats but may differ in a detail not shown here. Equal entries are not always repeated. Where two headings read alike, the source gives them in different places.

Key:
[1] = biological target: human serum albumin (HSA) (Homo sapiens, UniProt P02768); test: Fluorescence ligand titration of HSA: quenching of intrinsic protein (Trp214) fluorescence, fitted Kd, n and FRET efficiency
Description: For absorbance and fluorescence, solutions of the ligand, protein, and protein‐ligand complexes at different concentrations were prepared using PBS 1x buffer. […] The fluorescence intensities of protein‐ligand complexes were corrected for inner‐filter effects based on the absorbance of the ligands at the excitation and emission wavelengths ( IDA,cor=IDA10^(Absex+Absem)/2 ).^[ [19] ^] The fluorescence of the ligands in the absence of HSA was also recorded at 100 µM concentration. Spectral overlaps used to compute FRET rates were computed from the measured area‐normalized D emission and A absorption spectra and are reported in the Supporting Information. Protein and ligand solutions were freshly prepared, and titrations were carried out in the cuvette right before the measurement. The average of three measurements for the complexes at each ligand concentration was used to plot the spectra and compute FRET efficiencies following this formula: (10) E=1−IDA/ID where IDA is the intensity of the complex and ID the intensity of HSA in the absence of ligand.
Efficiencies were corrected based on the percentage of protein‐ligand complex formed in each solution, based on the measured Kd values, then final efficiencies were averaged over the three concentrations.

HSA = conditions: cited from earlier work
[2] = 5 µM HSA, PBS 1x, 295 nm excitation, IFE-corrected (carprofen: 280 nm)
[3] = Kd, excitation 280 nm, IFE-corrected
[4] = Kd, excitation 280 nm, no correction
[5] = Kd, excitation 295 nm, no correction
[6] = corrected by fraction of ligand-bound protein, 295 nm excitation, IFE-corrected (carprofen: 280 nm)
[7] = dissociation binding constant Kd, 5 µM HSA, PBS 1x, 25 °C, 295 nm excitation, IFE-corrected (carprofen: 280 nm)
[8] = excitation 280 nm, IFE-corrected
[9] = excitation 280 nm, no correction
[10] = excitation 295 nm, IFE-corrected
[11] = excitation 295 nm, no correction

human serum albumin (HSA), sequence (P02768 25-609): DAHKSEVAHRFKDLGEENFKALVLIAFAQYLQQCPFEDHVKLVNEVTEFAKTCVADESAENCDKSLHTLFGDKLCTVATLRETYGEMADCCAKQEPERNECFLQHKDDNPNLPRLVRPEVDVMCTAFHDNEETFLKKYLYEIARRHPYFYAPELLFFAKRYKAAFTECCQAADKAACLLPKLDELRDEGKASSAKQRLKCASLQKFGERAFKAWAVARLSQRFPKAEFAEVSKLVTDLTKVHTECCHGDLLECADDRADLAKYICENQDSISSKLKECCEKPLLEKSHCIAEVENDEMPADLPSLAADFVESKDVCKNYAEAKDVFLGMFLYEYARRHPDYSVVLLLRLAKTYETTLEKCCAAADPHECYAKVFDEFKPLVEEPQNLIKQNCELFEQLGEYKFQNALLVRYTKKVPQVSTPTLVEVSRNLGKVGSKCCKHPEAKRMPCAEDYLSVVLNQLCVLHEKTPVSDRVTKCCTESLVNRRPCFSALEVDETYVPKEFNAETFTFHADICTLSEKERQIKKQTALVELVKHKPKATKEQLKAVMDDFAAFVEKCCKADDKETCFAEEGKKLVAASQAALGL

| solute binding parameter n (Hill coefficient) [1, 2] | Kd [1, 3] [µM] | Kd [1, 4] [µM] | Kd [1, 5] [µM] | experimental FRET efficiency E (Eexp) [1, 6] | Kd [1, 7] [µM] | Eexp [1, 8] | Eexp [1, 9] | Eexp [1, 10] | Eexp [1, 11] | measured FRET efficiency ([1]; from fluorescence data) [%] | Structure (SMILES) | further results |
| --- | --- | --- | --- | --- | --- | --- | --- | --- | --- | --- | --- | --- |
| 0.71 | 64.5 | 77 | 6.9 | 0.80 | 6.6 | 0.71± 0.02 | 0.87± 0.03 | 0.80 ± 0.03 | 0.82± 0.03 | 80 | Oc1ccc2ccccc2c1 [2‐naphthol] | experimental FRET efficiency E (Eexp) ([1]; corrected by fraction of ligand-bound protein, 295 nm excitation, IFE-corrected (carprofen: 280 nm), listed as 2-Naphthol): 0.80 ± 0.03 |
| 0.33 | 3.9 | 5.6 | 5 | 0.55 | 3.5 | 0.45± 0.01 | 0.57± 0.03 | 0.55 ± 0.02 | 0.67± 0.03 | 55 | NCCNc1cccc2ccccc12 [NNE, N‐(1‐naphthyl)ethylenediamine] | experimental FRET efficiency E (Eexp) ([1]; corrected by fraction of ligand-bound protein, 295 nm excitation, IFE-corrected (carprofen: 280 nm), listed as N-(1-Naphthyl)ethylenediamine): 0.55 ± 0.02 |
| 0.48 | – | 3 | 2.8 | 0.81 | 1.8 | 0.81 ± 0.03 | 0.89± 0.02 | 0.42± 0.04 | 0.71± 0.03 | 81 | C[C@H](C(=O)O)c1ccc2c(c1)[nH]c1ccc(Cl)cc12 [(S)‐carprofen] | experimental FRET efficiency E (Eexp) ([1]; corrected by fraction of ligand-bound protein, 295 nm excitation, IFE-corrected (carprofen: 280 nm), listed as Carprofen): 0.81 ± 0.03; Kd (HSA; read-out: Kd previous reports): 0.2 to 0.9 µM |
| 0.76 | 74.5 | 75.9 | 54.8 | 0.60 | 48 | 0.68± 0.01 | 0.80± 0.01 | 0.60 ± 0.01 | 0.76± 0.01 | 60 | O=C(O)COc1cccc2cccnc12 [QAA, (quinoline‐8‐yloxy)‐acetic acid] | Kd ([1]; Kd, excitation 295 nm, IFE-corrected): 48.1 µM; experimental FRET efficiency E (Eexp) ([1]; corrected by fraction of ligand-bound protein, 295 nm excitation, IFE-corrected (carprofen: 280 nm), listed as (Quinolin-8-yloxy)-acetic acid): 0.60 ± 0.01 |
| – | – | – | – | – | – | – | – | – | – | – | COc1ccc2c(c1)c(CC(=O)O)c(C)n2C(=O)c1ccc(Cl)cc1 [indomethacin] | Kd (HSA; read-out: Kd previously reported value): 6.1 µM |

| Structure (SMILES) | solute binding parameter n (Hill coefficient) [1, 2] | Kd [1, 3] [µM] | Kd [1, 4] [µM] | Kd [1, 5] [µM] | experimental FRET efficiency E (Eexp) [1, 6] | Kd [1, 7] [µM] | Eexp [1, 8] | Eexp [1, 9] | Eexp [1, 10] | Eexp [1, 11] | measured FRET efficiency ([1]; from fluorescence data) [%] | further results |
| --- | --- | --- | --- | --- | --- | --- | --- | --- | --- | --- | --- | --- |
| O=C(O)c1c2ccccc2nc2ccccc12 [ACA, 9‐acridinecarboxylic acid] | 0.67 | 17.5 | 20.9 | 18.3 | 0.63 | 15.5 | 0.64± 0.02 | 0.75± 0.02 | 0.63 ± 0.02 | 0.72± 0.02 | 63 | – |
| O=C(O)c1c2ccccc2nc2ccccc12 [protonated ACA, 9-Acridinecarboxylic acid (protonated)] | – | – | – | – | 0.63 ± 0.02 | – | – | – | – | – | – | – |
| Oc1cccc2ccccc12 [1‐naphthol] | – | 128 | 104 | 105 | – | 137 | – | – | – | – | – | Eexp [1]: 0.83± 0.01 and 0.46± 0.05 and 0.79± 0.03 and 0.54± 0.03; experimental FRET efficiency E (Eexp) [1]: 0.46± 0.05 and 0.46; measured FRET efficiency [1]: 46%; solute binding parameter n (Hill coefficient) [1]: 0.73 |
